This series in a line: cn = amount concentration of the nth substance listed, in mol/dm3. The following applies: 101 kPa, Liquid, Capillary tube (Ostwald / Ubbelohde) method, c1 = 2.

This note sets out measurements from the NIST ThermoML archive (doi:10.1007/s10765-011-0996-9).

Numbers after ± are expanded uncertainties.

In the case of `[Cl-].[K+]` [potassium chloride] + O, the viscosity reads like this: (298.15 K) 0.9063 ± 0.0073 mPa·s; (303.15 K) 0.8279 ± 0.0067 mPa·s; (308.15 K) 0.7573 ± 0.0062 mPa·s; (313.15 K) 0.6954 ± 0.0058 mPa·s; (318.15 K) 0.64 ± 0.0054 mPa·s; (323.15 K) 0.5914 ± 0.0051 mPa·s.

As to `O=[N+]([O-])[O-].[K+]` [potassium nitrate] + O, the viscosity is recorded as 0.8985 ± 0.0072 mPa·s (298.15 K); 0.8134 ± 0.0066 mPa·s (303.15 K); 0.7473 ± 0.0061 mPa·s (308.15 K); 0.6857 ± 0.0057 mPa·s (313.15 K); 0.6322 ± 0.0054 mPa·s (318.15 K); 0.5838 ± 0.005 mPa·s (323.15 K).
